Patent US7829591B2, “Flavanone compound and uses thereof” (Pokka Corporation, priority 2003, dated 2010)

Legend:
[1] = β-carotene fading test; type: biochemical; conditions: 20 μM in reaction liquid, 60° C. for 60 minutes, absorbance 470 nm; average ± SD of three runs
Description: β-carotene will fade due to the reaction of linoleic acid peroxide, which is produced by the autoxidation of linoleic acid, with a double bond in β-carotene. This phenomenon was utilized so as to determine the antioxidant activity of each of Compounds 1 to 4 and the like. That is, first of all, 2 ml of a 200 mg/ml solution of Tween-40 in chloroform, 0.4 ml of a 100 mg/ml solution of linoleic acid in chloroform, and 3 ml of a 0.1 mg/ml solution of β-carotene in chloroform were mixed, and thereafter the solvent was removed by using a nitrogen gas. Subsequently, 100 ml of distilled water was added thereto, and adequately stirred to obtain an emulsion. To 3 ml of this emulsion, ethanol was added to completely dissolve the solute in the solvent. Thereafter, each of Compounds 1 to 4 was dissolved in ethanol so as to prepare a sample solution having a concentration of 1.2 mM. 50 μl of the sample solution was mixed with the above emulsion wherein the solute had been completely dissolved so as to prepare a reaction liquid (or a sample reaction liquid). Then the concentration of each of Compounds 1 to 4 in the reaction liquid was 20 μM. The reaction liquid was incubated at 60° C. for 60 minutes. Then the absorbance of each of the reaction liquid before the incubation and the reaction liquid after the incubation was determined at 470 nm. Furthermore, BHT, α-tocopherol, or eriodictyol was used in place of Compounds 1 to 4 so as to determine the absorbance of the reaction liquid before and after incubation according to a similar procedure to the above-mentioned one. In addition, as a control, a reaction liquid (or a control reaction liquid) wherein no sample solution was contained was prepared so as to determine the absorbance of the reaction liquid before and after incubation according to a similar procedure to the above-mentioned one. The antioxidant activity (%) of each of the materials was calculated using the following calculation formula 2. Incidentally, each of values shown in Table 1 is the average value and standard deviation of values obtained from three runs. (Antioxidant Activity)=[{(Fading Rate of Control)−(Fading Rate of Sample Solution)}/(Fading Rate of Control)]×100 Calculation Formula 2
It should be noted that in the calculation formula 2, “Fading Rate of Control” is the natural logarithm of a value which is acquired by dividing the absorbance of the control reaction liquid before incubation by the absorbance of the control reaction liquid after incubation and further by dividing the resultant value by 60; and “Fading Rate of Sample Solution” is the natural logarithm of a value which is acquired by dividing the absorbance of the sample reaction liquid before incubation by the absorbance of the sample reaction liquid after incubation and further by dividing the resultant value by 60.

[2] = DPPH radical scavenging activity test; type: biochemical; conditions: 25 μM sample solution in ethanol, 1 h in dark, absorbance 517 nm; average ± SD of three runs
Description: DPPH (α,α-diphenyl-β-picrylhydradil) is a purple stable radical having a maximum absorption at 517 nm, which is converted into colorless hydrazine by gaining hydrogen. This color reaction was utilized so as to determine the radical scavenging activity of each of Compounds 1 to 4 and the like. That is, each of Compounds 1 to 4 was dissolved in ethanol to prepare 3 ml of a sample solution having a concentration of 25 μM. Thereafter, to each of the resultant sample solutions, 0.75 ml of a 0.5 mM DPPH solution (whose solvent was ethanol) was added and stirred, and reacted in a dark place for one hour, followed by the determination of an absorbance at 517 nm. Furthermore, in place of Compounds 1 to 4, BHT (butylated hydroxytoluene), α-tocopherol or eriodictyol was used so as to determine an absorbance according to a similar procedure to the above. Besides, instead of the above sample solutions, ethanol was used as a control so as to determine an absorbance according to a similar procedure to the above. Then the radical scavenging activity (%) of each of the materials was calculated using the following calculation formula 1. Incidentally, each of values shown in Table 1 is the average value and standard deviation of values obtained from three runs. (Radical Scavenging Activity)=[{(Absorbance of Control)−(Absorbance of Sample Solution)}/(Absorbance of Control)]×100 Calculation Formula 1

[3] = system: breast cancer cells (MCF-7); test: Breast cancer cell proliferation-inhibition test; type: cell-based; conditions: 0.1 nM estradiol, Control 1 at 0 day = 1
Description: When breast cancer cells (MCF-7) are cultured, if estradiol (or 17β-estradiol) having a cell-proliferation accelerating action, is added thereto, the proliferation of breast cancer cells can be simply promoted in a short period. This phenomenon was utilized so as to examine the effect of each of Compounds 1 to 4 and the like on the proliferation inhibition of breast cancer cells. That is, first of all, each of Compounds 1 to 4 was diluted with dimethyl sulfoxide to prepare a sample solution. Thereafter, 2×10^3 of MCF-7 were inoculated in each well of a 96-well plate, and estradiol and the sample solution were added thereto after 4 hours. Estradiol was added to each compartment so that the final concentration of estradiol can be 0.1 nM, and the final concentration of the sample solution can be 0.2 μM, 2 μM, or 20 μM. After incubation for a predetermined period of time (three or five days), each of the media was replaced with a new medium, and an enzyme solution (Cell counting Kit-8: Wako) was added to the new medium in an amount of 10% of the new medium. After maintained the medium in an incubator at a temperature of 37° C. for two hours, the absorbance of the medium was determined at a wavelength of 450 nm (a reference wave length of 630 nm) by means of a spectrophotometer so as to quantify the number of living cells in each compartment.
As for the compartment whose incubation period is predetermined to be five days, on the third day of the incubation, the medium was replaced with a new medium, and thereafter, estradiol and a sample solution were added to the new medium, and the incubation was continued till fifth day. As for the compartment whose incubation period is predetermined to be 0 day, at four hours after the cells were inoculated, an enzyme solution was added to the medium. The medium was maintained in an incubator at a temperature of 37° C. for two hours, followed by determining the absorbance.
Instead of Compounds 1 to 4, eriodictyol was used to determine the absorbance according to a similar procedure to the above-mentioned one, and thus the number of living cells in each compartment was quantified. Furthermore, Control 1 to which neither estradiol nor a sample had been added was used to determine the absorbance according to a similar procedure to the above-mentioned one, and thus the number of living cells in each compartment was quantified, while Control 2 to which no sample had been added was used to determine the absorbance according to a similar procedure to the above-mentioned one, and thus the number of living cells in each compartment was quantified.
When it is assumed that the number of living cells of Control 1 as quantified after a zero-day incubation period is 1, the relative value of living cells as quantified in each of the runs mentioned above is shown in Table 2. Incidentally, each of values shown in Table 2 is the average value and standard deviation of values obtained from eight wells.

## Cc1cc(C(C)(C)C)c(O)c(C(C)(C)C)c1 [BHT, butylated hydroxytoluene, reference compound]
[1]
  Antioxidant Activity (%) from β-carotene Fading Test: 85.02 ± 1.89%
[2]
  Radical Scavenging Activity (%) from DPPH Radical Scavenging Activity Test: 28.51 ± 7.48%

## O=C1C[C@@H](c2ccc(O)c(O)c2)Oc2cc(O)cc(O)c21 [Eriodictyol, eriodictyol, reference compound]
[1]
  Antioxidant Activity (%) from β-carotene Fading Test: 81.47 ± 2.48%
[2]
  Radical Scavenging Activity (%) from DPPH Radical Scavenging Activity Test: 68.82 ± 1.12%
[3]; 0.2 μM sample, after 3-days incubation
  Relative Value of Living Cells: 2.88 ± 0.22
[3]; 0.2 μM sample, after 5-days incubation
  Relative Value of Living Cells: 7.33 ± 0.60
[3]; 0.2 μM sample, on 0-day incubation, mean ± SD of eight wells
  Relative Value of Living Cells: 0.96 ± 0.04
[3]; 2 μM sample, after 3-days incubation
  Relative Value of Living Cells: 2.90 ± 0.13
[3]; 2 μM sample, after 5-days incubation
  Relative Value of Living Cells: 7.16 ± 0.36
[3]; 2 μM sample, on 0-day incubation
  Relative Value of Living Cells: 0.98 ± 0.07
[3]; 20 μM sample, after 3-days incubation
  Relative Value of Living Cells: 2.54 ± 0.30
[3]; 20 μM sample, after 5-days incubation
  Relative Value of Living Cells: 5.13 ± 0.62
[3]; 20 μM sample, on 0-day incubation
  Relative Value of Living Cells: 1.01 ± 0.05

## Cc1c(C)c2c(c(C)c1O)CC[C@@](C)(CCC[C@H](C)CCC[C@H](C)CCCC(C)C)O2 [α-tocopherol, reference compound]
[1]
  Antioxidant Activity (%) from β-carotene Fading Test: 93.00 ± 0.73%
[2]
  Radical Scavenging Activity (%) from DPPH Radical Scavenging Activity Test: 58.87 ± 1.24%
